This is an account of results in ChEMBL document CHEMBL1158649, “Constituents of Pachygone ovata and Pharmacological Action of its Major Leaf Alkaloid” (J Nat Prod, 1979).

Series [1] is filed under the species Mus musculus. The series can be described thus: Effect on behavioral activity in mouse in presence of mephenesin. It is filed as functional, organism-based.
The test system of series [2] is Mus musculus. The experiment in a line: Potentiation of hexobarbitone-induced sleeping time in mouse at 5 mg/kg, ip. Type of series: functional. The conditions noted are these: route intraperitoneal.
The test system of series [3] is Mus musculus. The experiment in a line: Effect on behavioral activity in mouse assessed as convulsion-induced hind limb extension at 30 to 40 mg/kg, ip. Type of series: functional, organism-based. The conditions noted are these: Hindlimb.
Series [4] in a line: Acute toxicity in ip dosed mouse. It is filed as organism-based. Particulars: in vivo.
Series [5] deals with Hoplobatrachus tigerinus. The series can be described thus: Induction of tetanic convulsion in frog at 40 mg/kg dosed in ventral lymph sac. It is filed as functional, organism-based. The arrangement: dose 40 mg/kg.
Series [6] can be described thus: Potentiation of amphetamine-induced lethal activity in Wistar albino rat assessed as mortality after 4 days. The conditions noted are these: in vivo, read-out: Activity. It is filed as organism-based.
Series [7] has as its system Rattus norvegicus. The experiment in a line: Antinociceptive activity in Wistar albino rat assessed as increase in latent period of tail flick response at 10 mg/kg, ip by tail-hot wire technique. It is filed as functional. The conditions noted are these: route intraperitoneal.
The subject of series [8] is Rattus norvegicus. The experiment in a line: Increase in rectal temperature in Wistar albino rat at 20 mg/kg, ip by telethermometer relative to control. The conditions noted are these: route intraperitoneal. It is filed as functional.
The subject of series [9] is Mus musculus. The series can be described thus: Effect on central nervous system in mouse assessed as behavioral activity at 10 to 20 mg/kg, ip. Type of series: functional, organism-based.
Series [10] deals with Mus musculus. The experiment in a line: Potentiation of hexobarbitone-induced sleeping time in mouse at 20 mg/kg, ip. Type of series: functional. Particulars: route intraperitoneal.
The test system of series [11] is Mus musculus. The experiment in a line: Increase in locomotor activity in mouse at 10 mg/kg, ip after 30 mins by actophotometer. The arrangement: dose 10 mg/kg. It is filed as functional, organism-based.
The subject of series [12] is Rattus norvegicus. The series can be described thus: Increase in rectal temperature in Wistar albino rat at 5 mg/kg, ip by telethermometer relative to control. Particulars: route intraperitoneal. It is filed as functional.
For series [13], the system named is Rattus norvegicus. The series can be described thus: Increase in rectal temperature in Wistar albino rat at 10 mg/kg, ip by telethermometer relative to control. Type of series: functional. The conditions noted are these: route intraperitoneal.
Series [14] relates to Rattus norvegicus. The experiment in a line: Antinociceptive activity in Wistar albino rat assessed as increase in latent period of tail flick response at 20 mg/kg, ip by tail-hot wire technique. Type of series: functional. The conditions noted are these: route intraperitoneal.
Series [15] is described as follows: Toxicity in Wistar albino rat assessed as mortality after 4 days. Type of series: organism-based. Particulars: in vivo, read-out: Activity.
Series [16] has as its system Mus musculus. The series can be described thus: Induction of hypnosis in mouse at 100 mg/kg, ip. Type of series: functional. The conditions noted are these: route intraperitoneal.

Active and inactive are the calls of the source. The calls are words filed in the database; no cut-off is given here.

In the case of `Cc1ccccc1OCC(O)CO` (stereo unspecified), the result in series [1] was inactive.
By LD50 is commonly meant the dose at which mortality reaches 50%. Read a low LD50 as greater toxicity. For the molecule `COc1ccc(C[C@H]2c3cc(O)c(OC)cc3CCN2C)cc1O` [(S)-RETICULINE], the Activity in series [2] was determined as 56.2 min; in series [7], 7.8 s; in [8], 1.1 °C; in [10] it was 23.7 min; in series [12] it was 0.36 °C; in series [13], 0.69 °C. Besides, in series [14], the Activity was determined as 11.9 s. Besides, the result in series [3], in [5], in series [9] and in series [11] was Active. Moreover, the LD50 in series [4] was 56 mg/kg. Moreover, the mortality at 96 h in series [6] was 60%.
`CC(N)Cc1ccccc1` (stereo unspecified) [AMPHETAMINE]: in [15], the mortality at 96 h was found to be 10%.
`CN1C(=O)NC(=O)C(C)(C2=CCCCC2)C1=O` (stereo unspecified) [HEXOBARBITAL]: in series [16], the Activity is given as 31.3 min.
